Measurements from patent publication US9540299B2, “MTOR-independent activator of TFEB for autophagy enhancement and uses thereof” (Hong Kong Baptist University, priority 2015, dated 2017).

Legend:
purified His-TFEB = molecular target: T1, purified His-TFEB (Homo sapiens, UniProt P19484); assay: Binding of solid-phase compound to purified recombinant His-TFEB; conditions: 17 μmol compound powder, RIPA buffer, 2 hours at 4° C.; 55 kDa band by TFEB antibody
T1 construct: purchased ORIGENE TP760282
T1 sequence (P19484 1-476): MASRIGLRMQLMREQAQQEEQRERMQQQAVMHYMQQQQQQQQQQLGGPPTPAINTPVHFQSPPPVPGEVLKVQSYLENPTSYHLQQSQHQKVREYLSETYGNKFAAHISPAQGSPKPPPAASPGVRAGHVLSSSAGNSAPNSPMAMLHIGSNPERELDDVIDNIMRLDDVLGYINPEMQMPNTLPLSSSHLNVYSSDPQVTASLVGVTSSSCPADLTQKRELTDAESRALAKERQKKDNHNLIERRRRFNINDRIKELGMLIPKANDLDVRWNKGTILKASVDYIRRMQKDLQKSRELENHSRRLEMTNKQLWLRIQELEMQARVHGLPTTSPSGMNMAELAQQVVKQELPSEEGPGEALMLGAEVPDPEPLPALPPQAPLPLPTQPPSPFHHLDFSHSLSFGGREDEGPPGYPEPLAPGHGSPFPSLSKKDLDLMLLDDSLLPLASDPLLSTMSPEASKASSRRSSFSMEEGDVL
Method: Hela cells stably expressing 3×Flag-TFEB are treated with C1 (1 μM) for 12 h. Endogenous MTOR (A) and YWHA (B) are co-immunoprecipitated with Flag-TFEB. The levels of immunoprecipitated MTOR and YWHA are normalized to their corresponding levels in whole cell lysates (WCL). […] However, when MTOR and YWHA coimmunoprecipitated with Flag-TFEB after C1 treatment, interaction of MTOR and YWHA is decreased as compared with control. […] Furthermore, purified His-TFEB (TP760282, ORIGENE) is diluted in RIPA buffer and 17 μmol curcumin (6.3 mg) or C1 (5 mg) powder is added into TFEB solution and incubated for 2 hours at 4° C. with shaking. The supernatant is discarded after centrifuge. The pellet (compounds and the bound protein) is washes 4 times in RIPA buffer and the bound proteins are eluted by adding 2% SDS sampling buffer. The bound proteins are separated on 10% SDS—polyacrylamide gel and visualized by TFEB antibody (Proteintech).

wild-type (WT) SNCA = assay: Degradation of HA-tagged wild-type SNCA in inducible PC12 cells; assay type: cell-based; conditions: for degradation of SNCA WT: Dox 24 h then 48 h, curcumin 10 μM, analogs 1 μM
Method: (§1) Expression and intensity of HA-tagged wild-type (WT) or A53T mutant SNCA in inducible PC12 cells are treated with doxycycline (Dox, 2 μg/ml) for 24 h, and then treated with curcumin (10 μM), A2, B3 and C1 (1 μM) for another 48 h (A, C) in the presence or absence of chloroquine (CQ, 20 μM) and wortmannin (WM, 1 μM) (B, D). The expression of HA-SNCA is determined by western blots and quantified from three independent experiments. Corynoxine B (Cory B, 25 μM) is used as a positive control. Relative intensity is normalized to that of ACTB/β-actin. Data are presented as the mean±SD from three independent experiments. *p<0.05 vs. the control (0.1% DMSO).
(§2) N2a, Hela and Hela cells stably expressing 3×-Flag-TFEB are cultured in DMEM supplemented with 10% FBS. SH-SY5Y cells are cultured in DMEM/F12 supplemented with 10% FBS. For drug treatment, the full medium is replaced by fresh Opti-MEM I and then the compounds (in 0.1% DMSO) are added to the cells and incubated for 12 h. Inducible PC12 cells overexpressing SNCA (WT and A53T) (a kind gift from Prof. David C. Rubinsztein at Cambridge University) are grown in DMEM supplemented with 10% horse serum, 5% FBS, 50 μg/ml G418, and 150 μg/ml hygromycin B at 37° C., 10% CO2. Cells are treated with 2 μg/ml doxycycline (Dox) for 24 h to induce SNCA expression. The full medium is changed to Opti-MEM I containing the testing compounds for another 48 h.
(§3) Cells are lysed on ice in 1× Lysis Buffer (9803, Life Technologies) with complete protease inhibitor mixture (04693124001, Roche Applied Science). Animal tissues are homogenized in nine volumes of ice-cold PBS supplemented with protease inhibitors. Cytosolic and nuclear fractions are isolated using protocols similar to those described previously. Anti-Flag or TFEB antibody is added to the whole cell lysates and Dynabeads® Protein G (10003D, Life Technologies) is used for immunoprecipitation. Proteins are separated by 10-15% SDS-PAGE, transferred, and blotted with the antibodies described. The blots are then incubated with secondary antibodies or the Clean-Blot IP Detection Reagent (21230, Thermo Scientific) at room temperature for 1 h. The protein signals are detected by ECL kit (32106, Pierce) and quantified using ImageJ software.
(§4) Inducible PC12 cells are treated with doxycycline (Dox, 2 μg/ml) for 24 h to induce the expression of HA-tagged wild-type (WT) or A53T mutant SNCA, and then treated with curcumin (10 μM), A2, B3 and C1 (1 μM) for another 48 h (FIGS. 8 A, C) in the presence or absence of chloroquine (CQ, 20 μM) and wortmannin (WM, 1 μM) (FIGS. 8 B, D). The expression of HA-SNCA is determined by western blots and quantified from three independent experiments. Corynoxine B (Cory B, 25 μM) is used as a positive control. […] Corynoxine B (Cory B) is used as a positive control.

A53T mutant SNCA = assay: Degradation of HA-tagged A53T mutant SNCA in inducible PC12 cells; assay type: cell-based; conditions: for degradation of SNCA A53T: Dox 24 h then 48 h, curcumin 10 μM, analogs 1 μM
Method: as §1, §2, §3, §4

| Compound | direct binding to purified TFEB (purified His-TFEB) | degradation of SNCA WT (wild-type (WT) SNCA; inducible PC12 cells) | degradation of SNCA A53T (A53T mutant SNCA; inducible PC12 cells) | activity in degrading SNCA in presence of wortmannin (WM) or CQ (wild-type (WT) SNCA; SNCA WT, WM 1 μM, CQ 20 μM, 1 μM compound) | SNCA clearance, comparison among compounds (wild-type (WT) SNCA; inducible PC12 cells, SNCA WT) | activity in degrading SNCA in presence of wortmannin (WM) or CQ (A53T mutant SNCA; SNCA A53T, WM 1 μM, CQ 20 μM, 1 μM compound) | SNCA clearance, comparison among compounds (A53T mutant SNCA; inducible PC12 cells, SNCA A53T) |
| --- | --- | --- | --- | --- | --- | --- | --- |
| COc1cc(/C=C/C(=O)CC(=O)/C=C/c2ccc(O)c(OC)c2)ccc1O [curcumin, Curcumin, reference compound] | not | no effect | promotes the degradation | – | – | – | – |
| O=C(/C=C/c1ccc(O)cc1)/C=C/c1ccc(O)cc1 [B3, 1,5-bis(4-hydroxyphenyl)penta-1,4-dien-3-one] | – | significantly degrade | significantly degrade | – | – | – | – |
| COc1ccccc1/C=C/C(=O)/C=C/c1ccccc1OC [C1, 1,5-bis(2-methoxyphenyl)penta-1,4-dien-3-one] | can directly bind | significantly degrade | significantly degrade | significantly blocked | best effects | significantly blocked | best effects |
| O=C(/C=C/c1cccc(C(F)(F)F)c1)/C=C/c1cccc(C(F)(F)F)c1 [A2, 1,5-bis(3-(trifluoromethyl)phenyl)penta-1,4-dien-3-one] | – | significantly degrade | significantly degrade | – | – | – | – |
